# Columns and labels:
# giant foxtail [1] = assay: Test A pre-/postemergence greenhouse test; assay type: in vivo, Setaria faberi; settings: for Plant response rating, Foxtail, Giant: 0 to 100 scale where 0 is no effect and 100 is complete control; for Foxtail, Giant plant response rating: 0 to 100 scale
# Outline: (§1)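 Visual injury ratings, made relative to untreated controls roughly ten days after treatment, cover both preemergence and postemergence application. Compounds in a surfactant-containing non-phytotoxic solvent were sprayed onto the soil surface after sowing and, simultaneously, onto young plants at the one- to two-leaf stage.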
# morningglory = assay: Test A pre-/postemergence greenhouse test; assay type: in vivo, Ipomoea spp.; settings: for Plant response rating, Morningglory: 0 to 100 scale where 0 is no effect and 100 is complete control; for Morningglory plant response rating: 0 to 100 scale
# Outline: as §1
# redroot pigweed = assay: Test A pre-/postemergence greenhouse test; assay type: in vivo, Amaranthus retroflexus; settings: for Plant response rating, Pigweed: 0 to 100 scale where 0 is no effect and 100 is complete control; for Pigweed plant response rating: 0 to 100 scale
# Outline: as §1
# wheat [2] = assay: Test A pre-/postemergence greenhouse test; assay type: in vivo, Triticum aestivum; settings: for Plant response rating, Wheat: 0 to 100 scale where 0 is no effect and 100 is complete control; for Wheat plant response rating: 0 to 100 scale
# Outline: as §1
# blackgrass = assay: Test C pre-/postemergence test; assay type: in vivo, Alopecurus myosuroides
# Source text: (§2) Seeds of plant species selected from blackgrass (Alopecurus myosuroides), downy brome (Bromus tectorum), green foxtail (Setaria viridis), Italian ryegrass (Lolium multiflorum), wheat (Triticum aestivum), wild oat (Avena fatua), catchweed bedstraw (Galium aparine), Russian thistle (Salsola kali), […] (Cynodon dactylon), Surinam grass (Brachiaria decumbens), cocklebur (Xanthium strumarium), corn (Zea mays), crabgrass (Digitaria sanguinalis), woolly cupgrass (Eriochloa villosa), giant foxtail (Setaria faberii), Goosegrass (Eleusin indica), johnsongrass (Sorghum halepense), kochia (Kochia scoparia), lambsquarters (Chenopodium album), morningglory (Ipomoea coccinea), eastern black nightshade (Solanum ptycanthum), yellow nutsedge (Cyperus esculentus), pigweed (Amaranthus retroflexus), common ragweed (Ambrosia elation), soybean (Glycine max), common (oilseed) sunflower (Helianthus annuus), and velvetleaf (Abutilon theophrasti) were planted and treated preemergence with test chemicals formulated in a non-phytotoxic solvent mixture which included a surfactant. At the same time, plants selected from these crop and weed species and also winter barley (Hordeum vulgare), canarygrass (Phalaris minor), and chickweed (Stellaria media) were treated with postemergence applications of some of the test chemicals formulated in the same manner. Plants ranged in height from 2 to 18 cm (1- to 4-leaf stage) for postemergence treatments. […] At time of treatment, test pots were flooded to 3 cm above the soil surface, treated by application of test compounds directly to the paddy water, and then maintained at that water depth for the duration of the test. […] A dash (-) response means no test result.
# downy brome = assay: Test C pre-/postemergence test; assay type: in vivo, Bromus tectorum
# Source text: as §2
# wheat [3] = assay: Test C pre-/postemergence test; assay type: in vivo, Triticum aestivum
# Source text: as §2
# wild oat = assay: Test C pre-/postemergence test; assay type: in vivo, Avena fatua
# Source text: as §2
# Surinam grass = assay: Test C pre-/postemergence test; assay type: in vivo, Brachiaria decumbens
# Source text: as §2
# cocklebur = assay: Test C pre-/postemergence test; assay type: in vivo, Xanthium strumarium; settings: for Plant response rating, Cocklebur: scale 0 to 100, 0 no effect, 100 complete control
# Source text: as §2
# woolly cupgrass = assay: Test C pre-/postemergence test; assay type: in vivo, Eriochloa villosa
# Source text: as §2
# giant foxtail [4] = assay: Test C pre-/postemergence test; assay type: in vivo, Setaria faberii; settings: for Foxtail, Giant plant response rating: preemergence, scale 0 (no effect) to 100 (complete control)
# Source text: as §2
# kochia = assay: Test C pre-/postemergence test; assay type: in vivo, Kochia scoparia
# Source text: as §2
# lambsquarters = assay: Test C pre-/postemergence test; assay type: in vivo, Chenopodium album; settings: Postemergence; for Plant response rating, Lambsquarters: scale 0 to 100, 0 no effect, 100 complete control
# Source text: as §2
# common ragweed = assay: Test C pre-/postemergence test; assay type: in vivo, Ambrosia elation
# Source text: as §2
# [5] = system: common (oilseed) sunflower; assay: Test C pre-/postemergence test; assay type: in vivo, Helianthus annuus
# Source text: as §2
# velvetleaf = assay: Test C pre-/postemergence test; assay type: in vivo, Abutilon theophrasti
# Source text: as §2
# [6] = Postemergence, 500 g ai/ha, 0 is no effect, 100 is complete control
# [7] = Preemergence, 125 g ai/ha, 0 no effect, 100 complete control
# [8] = 62 g ai/ha, Preemergence, scale 0 to 100
# [9] = 125 g ai/ha, preemergence, scale 0 (no effect) to 100 (complete control)
# [10] = Postemergence, 62 g ai/ha, scale 0 to 100, 0 no effect, 100 complete control
# [11] = Postemergence, 250 g ai/ha, scale 0 to 100, 0 no effect, 100 complete control
# [12] = Preemergence, 31 g ai/ha, scale 0 to 100 (0 no effect, 100 complete control)
# [13] = preemergence, 250 g ai/ha, scale 0 (no effect) to 100 (complete control)
# [14] = Postemergence, 125 g ai/ha, scale 0 to 100, 0 no effect, 100 complete control
structure (smiles),measurement,setting,value
CCn1nc(C(F)(F)F)c(C[S+]([O-])c2cccc[n+]2[O-])c1OCC(F)(F)F (racemic) [Compound 65],"Plant response rating, Foxtail, Giant","giant foxtail [1]; Postemergence, 125 g ai/ha",90
same,"Foxtail, Giant plant response rating",giant foxtail [1]; [6],100
same,"Foxtail, Giant plant response rating",giant foxtail [1]; [7],100
same,"Plant response rating, Foxtail, Giant","giant foxtail [1]; Preemergence, 500 g ai/ha",100
same,"Plant response rating, Morningglory","morningglory; Postemergence, 125 g ai/ha",60
same,Morningglory plant response rating,morningglory; [6],90
same,Morningglory plant response rating,morningglory; [7],60
same,"Plant response rating, Morningglory","morningglory; Preemergence, 500 g ai/ha",100
same,"Plant response rating, Pigweed","redroot pigweed; Postemergence, 125 g ai/ha",80
same,Pigweed plant response rating,redroot pigweed; [6],90
same,Pigweed plant response rating,redroot pigweed; [7],100
same,"Plant response rating, Pigweed","redroot pigweed; Preemergence, 500 g ai/ha",100
same,"Plant response rating, Wheat","wheat [2]; Postemergence, 125 g ai/ha",60
same,Wheat plant response rating,wheat [2]; [6],70
same,Wheat plant response rating,wheat [2]; [7],80
same,"Plant response rating, Wheat","wheat [2]; Preemergence, 500 g ai/ha",100
same,Blackgrass plant response rating,blackgrass; [8],100
same,Blackgrass plant response rating,blackgrass; [9],100
same,"Plant response rating (0 to 100), Blackgrass","blackgrass; Postemergence, 31 g ai/ha",0
same,"Plant response rating, Blackgrass",blackgrass; [10],30
same,"Plant response rating, Blackgrass",blackgrass; [11],30
same,"Plant response rating, Blackgrass",blackgrass; [12],100
same,Blackgrass plant response rating,blackgrass; [13],100
same,"Bromegrass, Downy plant response rating",downy brome; [8],100
same,"Bromegrass, Downy plant response rating",downy brome; [9],100
same,"Plant response rating (0 to 100), Bromegrass, Downy","downy brome; Postemergence, 31 g ai/ha",0
same,"Plant response rating, Bromegrass, Downy",downy brome; [10],10
same,"Plant response rating, Bromegrass, Downy",downy brome; [14],30
same,"Plant response rating, Bromegrass, Downy",downy brome; [11],75
same,"Plant response rating, Bromegrass, Downy",downy brome; [12],65
same,"Bromegrass, Downy plant response rating",downy brome; [13],100
same,Wheat plant response rating,wheat [3]; [8],80
same,Wheat plant response rating,wheat [3]; [9],100
same,"Plant response rating (0 to 100), Wheat","wheat [3]; Postemergence, 31 g ai/ha",0
same,"Plant response rating (0 to 100), Wheat","wheat [3]; Postemergence, 62 g ai/ha",0
same,"Plant response rating, Wheat",wheat [3]; [14],25
same,"Plant response rating, Wheat",wheat [3]; [11],30
same,"Plant response rating, Wheat",wheat [3]; [12],50
same,Wheat plant response rating,wheat [3]; [13],100
same,"Oat, Wild plant response rating",wild oat; [8],98
same,"Oat, Wild plant response rating",wild oat; [9],98
same,"Plant response rating (0 to 100), Oat, Wild","wild oat; Postemergence, 31 g ai/ha",0
same,"Plant response rating, Oat, Wild",wild oat; [10],40
same,"Plant response rating, Oat, Wild",wild oat; [14],80
same,"Plant response rating, Oat, Wild",wild oat; [11],85
same,"Plant response rating, Oat, Wild",wild oat; [12],85
same,"Oat, Wild plant response rating",wild oat; [13],100
same,Surinam Grass plant response rating,Surinam grass; [8],100
same,Surinam Grass plant response rating,Surinam grass; [9],100
same,"Plant response rating (0 to 100), Surinam Grass","Surinam grass; Postemergence, 31 g ai/ha",0
same,"Plant response rating (0 to 100), Surinam Grass","Surinam grass; Postemergence, 62 g ai/ha",0
same,"Plant response rating, Surinam Grass",Surinam grass; [14],0
same,"Plant response rating, Surinam Grass",Surinam grass; [11],25
same,"Plant response rating, Surinam Grass",Surinam grass; [12],80
same,Surinam Grass plant response rating,Surinam grass; [13],100
same,Cocklebur plant response rating,cocklebur; [8],0
same,"Plant response rating (0 to 100), Cocklebur","cocklebur; Postemergence, 31 g ai/ha",0
same,"Plant response rating, Cocklebur","cocklebur; Postemergence, 62 g ai/ha",0
same,"Plant response rating, Cocklebur","cocklebur; Postemergence, 125 g ai/ha",0
same,"Plant response rating, Cocklebur","cocklebur; Postemergence, 250 g ai/ha",0
same,Cocklebur plant response rating,cocklebur; [13],90
same,"Cupgrass, Woolly plant response rating",woolly cupgrass; [8],40
same,"Cupgrass, Woolly plant response rating",woolly cupgrass; [9],100
same,"Plant response rating (0 to 100), Cupgrass, Woolly","woolly cupgrass; Postemergence, 31 g ai/ha",0
same,"Plant response rating, Cupgrass, Woolly",woolly cupgrass; [10],0
same,"Plant response rating, Cupgrass, Woolly",woolly cupgrass; [14],0
same,"Plant response rating, Cupgrass, Woolly",woolly cupgrass; [11],40
same,"Plant response rating, Cupgrass, Woolly",woolly cupgrass; [12],40
same,"Cupgrass, Woolly plant response rating",woolly cupgrass; [13],100
same,"Foxtail, Giant plant response rating",giant foxtail [4]; 125 g ai/ha,100
same,"Plant response rating (0 to 100), Foxtail, Giant","giant foxtail [4]; Postemergence, 31 g ai/ha",0
same,"Plant response rating, Foxtail, Giant",giant foxtail [4]; [10],0
same,"Plant response rating, Foxtail, Giant",giant foxtail [4]; [14],40
same,"Plant response rating, Foxtail, Giant",giant foxtail [4]; [11],80
same,"Plant response rating, Foxtail, Giant",giant foxtail [4]; [12],98
same,"Foxtail, Giant plant response rating",giant foxtail [4]; 250 g ai/ha,100
same,Kochia plant response rating,kochia; [8],100
same,Kochia plant response rating,kochia; [9],100
same,"Plant response rating (0 to 100), Kochia","kochia; Postemergence, 31 g ai/ha",0
same,"Plant response rating, Kochia",kochia; [10],0
same,"Plant response rating, Kochia",kochia; [14],0
same,"Plant response rating, Kochia",kochia; [11],0
same,"Plant response rating, Kochia",kochia; [12],100
same,Kochia plant response rating,kochia; [13],100
same,"Plant response rating (0 to 100), Lambsquarters",lambsquarters; 31 g ai/ha,0
same,"Plant response rating, Lambsquarters",lambsquarters; 62 g ai/ha,0
same,"Plant response rating, Lambsquarters",lambsquarters; 125 g ai/ha,50
same,"Plant response rating, Lambsquarters",lambsquarters; 250 g ai/ha,50
same,Ragweed plant response rating,common ragweed; [8],100
same,Ragweed plant response rating,common ragweed; [9],100
same,"Plant response rating (0 to 100), Ragweed","common ragweed; Postemergence, 31 g ai/ha",0
same,"Plant response rating (0 to 100), Ragweed","common ragweed; Postemergence, 62 g ai/ha",0
same,"Plant response rating, Ragweed",common ragweed; [14],0
same,"Plant response rating, Ragweed",common ragweed; [11],0
same,"Plant response rating, Ragweed",common ragweed; [12],100
same,Ragweed plant response rating,common ragweed; [13],100
same,Sunflower plant response rating,[5]; [8],50
same,Sunflower plant response rating,[5]; [9],100
same,"Plant response rating, Sunflower",[5]; [12],45
same,Velvetleaf plant response rating,velvetleaf; [8],60
same,Velvetleaf plant response rating,velvetleaf; [9],100
same,"Plant response rating (0 to 100), Velvetleaf","velvetleaf; Postemergence, 31 g ai/ha",0
same,"Plant response rating (0 to 100), Velvetleaf","velvetleaf; Postemergence, 62 g ai/ha",0
same,"Plant response rating, Velvetleaf",velvetleaf; [14],30
same,"Plant response rating, Velvetleaf",velvetleaf; [11],40
same,"Plant response rating, Velvetleaf",velvetleaf; [12],55
same,Velvetleaf plant response rating,velvetleaf; [13],100
